Like-named read-outs stand apart in the source and are kept apart here.
Legend:
rats = conditions: exposures far above the ED50 in rats
clinical = conditions: for AUC(0-t) / Cmax / Tmax: human
Protocol: The reference treatment i fasted condition for all comparisons.
Eight subjects in Cohort A3 participated in a 2-period treatment design in which they were assessed for the single-dose of drug substance in a Fasted condition and in a Fed condition. Subjects were to receive the same treatment (i.e., either drug substance or placebo) in both Period 1 and Period 2, and thus subjects would receive either two single doses of drug substance or two single doses of placebo during their participation in the study. Fasting state assessments occurred in Period 1 and Fed State assessments in Period 2. It was planned that an approximate 7-day washout would be needed between the Fast and Fed dosing periods. Note that PD assessments were not performed for the food effect Cohort A3.
Note that PD assessments were not performed for the Food Effect cohort.
For Part A Cohort A3, assessment of the food-effect was performed for the following PK parameters: • AUC0-last • Cmax • AUC0-inf

[1] = Protocol: The screen was performed using solvent recrystallizations using different conditions, as well as non-competitive slurry experiments, to manipulate the solid-state form of the test material. Samples generated during the study were characterized using differential scanning calorimetry (DSC), thermogravimetric analysis (TGA), powder X-ray diffraction (XRD), and dynamic vapor sorption (DVS).
To perform the solvent-based portion of the polymorph screen, the test material was recrystallized using various solvents under approximately 78 different crystal growth conditions. The scale of the recrystallization experiments was approximately 1 to 20 mL. The method of changing the crystal growth conditions was by using single and binary arrays of solvent mixtures. The saturation temperature, growth temperature, and evaporation rate were also varied to create additional differences in crystal growth conditions.
Saturated solutions were prepared by agitating excess test material in contact with the various solvent systems at the saturation temperature. The mother liquor was separated from the residual solids by filtration if solids remained in the solution. The mother liquor was then heated above the saturation temperature to dissolve any remaining solids. The temperature of each solution was then adjusted to the growth temperature and a controlled nitrogen shear flow was introduced to begin solvent evaporation.
In addition to the solvent recrystallization experiments, non-competitive slurry experiments were performed to search for new solid-state forms. These experiments rely on solubility differences of different polymorphic form, if the compound exists in different polymorphic forms. As such, only polymorphs having a lower solubility (i.e., increased stability) than the original crystalline form can result from a non-competitive slurry experiment.
Essentially, when a solid is mixed with solvent to create slurry, a saturated solution is formed. The solution is saturated with respect to the polymorphic form dissolved.
The slurry experiments described herein were performed by exposing excess supplied material (i.e., Form A) to solvents and agitating the resulting suspensions for one week at ambient temperature. The solids were filtered and analyzed by XRD to determine the resulting form(s).
Solids generated from the solvent based recrystallization panels and otherwise provided samples were analyzed by powder XRD. To mitigate preferred grain effects, a two dimensional detection system was used to collect all the XRD screening data. The two dimensional detector integrates along the concentric Debye cones which helps reduce pattern variation. If bright spots appear in the conical rings, it indicates strong preferred grain effects that can lead to considerable variability in the observed diffraction patterns including changes in peak intensities.
The analysis entailed cluster analysis and multivariate statistics to group together any patterns that were determined to be statistically the same.
In the dendrogram, each pair of diffraction patterns is connected via a single node, which corresponds to a dissimilarity value (between 0 and 1) on the y-axis. The higher the connecting node is, the more dissimilar the two patterns are. A threshold dissimilarity value (~0.4 in this case) is used to group similar patterns into clusters, which should correspond to different solid state forms. The cluster plot is a 3D representation of the same analysis.

Remark: listed apart in the source
[2] = Hygroscopicity - Dynamic Vapor Sorption (DVS); type: physicochemical
Protocol: Hygroscopicity—Dynamic Vapor Sorption (DVS)
DVS is a gravimetric technique that measures how quickly and how much of a solvent (water) is sorbed by a sample. The relative humidity or vapor concentration surrounding the sample is varied while the change in mass of the sample is measured. […] The mass values at each relative humidity step are used to generate an isotherm. Isotherms are divided in two components: sorption for increasing humidity steps and desorption for decreasing humidity steps. A plot of kinetic data is also used to show the change in mass and humidity as a function of time.
The samples were analyzed using a TA Q5000 automated dynamic vapor sorption analyzer. The samples were dried at 60° C. over 180 minutes and then cooled to 25° C. with a dry nitrogen purge. The samples were then subjected to 0 to 90% RH, back to 10% RH at 25° C. in 10% RH steps.

[3] = 120 mg DS (Fed), single oral dose, plasma, N = 6
[4] = 120 mg DS, Fed versus Fasted, n = 6
[5] = Panel: Anti-solvent addition, 15 experiments
[6] = Panel: Cooled to −20° C., single solvent, 12 experiments
[7] = Panel: Fast evaporation, binary solvent, 13 experiments
[8] = Panel: Fast evaporation, single solvent, 65° C., 14 experiments
[9] = Panel: Fast evaporation, single solvent, ambient, 24 experiments
[10] = Panel: Non-competitive slurries, 15 experiments
[11] = Total of all panels, 100 experiments

## CN(C)C[C@H]1CN(CCc2ccsc2)CC[C@]1(O)c1cccc(C(N)=O)c1 [Compound I, 3-(3S, 4R)-3-((dimethylamino)methyl)-4-hydroxy-1-(2-(thiophen-3-yl)ethyl)piperidin-4-yl-benzamide]
rats
  respiratory depression or other opiate-based adverse effects: no respiratory depression or other opiate-based adverse effects
clinical; 120 mg
  GLSM ratio (90% CI) fed/fasted, AUC0-last: 0.801 (0.688, 0.933)
  GLSM ratio (90% CI) fed/fasted, Cmax: 0.450 (0.238, 0.852)
  reduction of AUC0-last by food: approximately 20%
  reduction of peak concentrations by food: approximately 55%
clinical; [3]
  Tlast (time of last measurable concentration), Median: 48.0 h
  Tlast, Max: 48.0 h
  Tlast, Min: 36.0 h
  Tmax, Max: 6.02 h
  Tmax, Min: 1.00 h
clinical; [4]
  AUC0-last, Fed versus Fasted Ratio of GLSMs: 0.801
  Cmax, Fed versus Fasted Ratio of GLSMs: 0.450
clinical; 120 mg fed
  mean concentrations measurable through: 48 h
clinical; plasma, oral, 120 mg, AUC0-last (zero to 24 hours postdose), GLSM, 120 mg DS (Fasted), n = 6
  AUC(0-t): 202 ng·h/mL
clinical; plasma, oral, 120 mg, AUC0-last (zero to 24 hours postdose), GLSM, 120 mg DS (Fed), n = 6
  AUC(0-t): 162 ng·h/mL
clinical; plasma, oral, 120 mg, GLSM (geometric least squares mean), 120 mg DS (Fasted), n = 6
  Cmax: 81.9 ng/mL
clinical; plasma, oral, 120 mg, GLSM (geometric least squares mean), 120 mg DS (Fed), n = 6
  Cmax: 36.9 ng/mL
clinical; plasma, oral, 120 mg, individual Tmax range, with food
  Tmax: 1 to 6 h
clinical; plasma, oral, 120 mg, individual Tmax range, without food
  Tmax: 2 to 3 h
clinical; plasma, oral, 120 mg, median Tmax, with food
  Tmax: 2.6 h
clinical; plasma, oral, 120 mg, median Tmax, without food
  Tmax: 2.3 h
clinical; plasma, po, 120 mg, AUC0-last (zero to 24 hours postdose), Mean, 120 mg DS (Fed), single oral dose, N = 6
  AUC(0-t): 166 ng·h/mL
clinical; plasma, po, 120 mg, AUC0-t (zero to the last quantifiable concentration), Mean, 120 mg DS (Fed), single oral dose, N = 6
  AUC(0-t): 204 ng·h/mL
clinical; plasma, po, 120 mg, Mean, 120 mg DS (Fed), single oral dose, N = 6
  Cmax: 45.2 ng/mL
clinical; plasma, po, 120 mg, Tmax, Median, 120 mg DS (Fed), single oral dose, N = 6
  Tmax: 2.58 h
[1]; [5]
  No. of experiments giving Amorphous Form: 0
  No. of experiments giving Form A: 9
  No. of experiments with No solid recovered: 6
[1]; [6]
  No. of experiments giving Amorphous Form: 0
  No. of experiments giving Form A: 0
  No. of experiments with No solid recovered: 12
[1]; [7]
  No. of experiments giving Amorphous Form: 1
  No. of experiments giving Form A: 9
  No. of experiments with No solid recovered: 3
[1]; [8]
  No. of experiments giving Amorphous Form: 2
  No. of experiments giving Form A: 4
  No. of experiments with No solid recovered: 8
[1]; [9]
  No. of experiments giving Amorphous Form: 6
  No. of experiments giving Form A: 1
  No. of experiments with No solid recovered: 17
[1]; [10]
  No. of experiments giving Amorphous Form: 0
  No. of experiments giving Form A: 13
  No. of experiments with No solid recovered: 2
[1]; [11]
  No. of experiments giving Amorphous Form: 9
  No. of experiments giving Form A: 43
  No. of experiments with No solid recovered: 48
[1]; all panels, 100 experiments
  % of Total experiments giving Amorphous Form: 9%
  % of Total experiments giving Form A: 43%
  % of Total experiments with No solid recovered: 48%
Conditioned Place Preference, Drug Self-Administration, Drug Discrimination
  abuse liability: no abuse liability
Preclinical model
  Withdrawal symptoms: only minimal Withdrawal symptoms
[2]
  maximum moisture uptake: approximately 10.5 wt %
[2]; in words, listed as Compound I free base
  hygroscopicity: hygroscopic

From patent US20260224549A1, “COMPOUNDS, COMPOSITIONS, AND METHODS FOR TREATING, AMELIORATING, AND/OR PREVENTING PAIN” (priority 2023, published 2026)
